The source of these data is US20030083374A1, “NAALADase inhibitors useful as pharmaceutical compounds and compositions” (priority 1998, published 2003).

In test [1] the test system is Dorsal root ganglia-Schwann cell co-cultures. Put plainly: in vitro myelination in dorsal root ganglia-Schwann cell co-cultures. The class given is cell-based. From the text:
The inventors hypothesized that NAALADase may play a role in signaling myelin formation and inhibition of NAALADase may facilitate myelination. To test this hypothesis, the inventors examined the effects of several NAALADase inhibitors in a well established in vitro model system of myelination. Dorsal root ganglia-Schwann cell co-cultures were established as previously described (Einheber et al., J. Cell. Biol., Vol. 123, p. 1223). Following 7 days in co-culture, myelination was initiated following the addition of serum and ascorbic acid with various doses of NAALADase inhibitors (1 nM to 10 μM) or progesterone (20 nM; positive control). The extent of myelination was examined between days 14-21 using immunocytochemical staining for myelin basic protein (MBP), a known myelin marker.

The test system of test [2] is streptozotocin (STZ)-induced peripheral diabetic neuropathy. The test can be described thus: in vivo STZ-induced peripheral diabetic neuropathy model, plantar test. Details: species or system Male Sprague-Dawley rats. The note with it: 50 mg/kg i.p. once per day, following 5 days of dosing. The procedure:
NAALADase inhibition in an in vivo streptozotocin (STZ)-induced peripheral diabetic neuropathy model was studied. Male Sprague-Dawley rats weighing 200-250 g were rendered diabetic by intravenous injection of 60 mg/kg STZ into the tail vein. Plasma glucose levels were determined 3 weeks after STZ administration. Only STZ-animals with plasma glucose levels>300 mg/dL (17 mM) were used in the study. Thermal pain threshold and withdrawal latency were used to assess the status of the small dorsal root ganglion (DRG) sensory neurons. Pain was monitored using the plantar test (Hargreaves' Method) using a Basile Plantar apparatus built by Ugo Basil, Vaarese, Italy.
At two months following the STZ administration, the diabetic animals were hyperalgesic as compared to non-diabetic controls as determined by their difference in withdrawal latency. At this time, the rats were administered either the NAALADase inhibitor Compound 2 (50 mg/kg) or vehicle intraperitoneally once per day for 20 days. Thermal pain responses were measured at days 3, 5, 12 and 19 post-dosing. […] This difference was maintained throughout the observation period.

In test [3] the test system is acetic acid (0.6%) induced writhing. Put plainly: acetic acid model of pain (writhing). Format: in vivo, mice. The note with it: pretreated. The source says: One source of neuronal glutamate is thought to derive from the abundant neuropeptide NAAG which is hydrolyzed by NAALADase to liberate free glutamate. The inventors hypothesized that inhibition of NAALADase could limit pain by preventing this source of glutamate. To test this hypothesis, the inventors examined the possible antinocipetive effects of several NAALADase inhibitors in the formalin-, acetic acid- and chronic constrictive injury (CCI; “Bennett model”) models of pain. […] On day 7, 5% formalin was injected into the dorsum of the rat's hindpaw.

Test [4] relates to STZ-induced diabetic rats. The test can be described thus: in vivo assay on neuropathic pain in STZ-diabetic rats (Hargreaves). Details: species or system Male Sprague-Dawley rats. The note with it: 10 mg/kg i.p. daily, started 45 days post-STZ. As for the experimental part: (§1) Male Sprague-Dawley rats (200-225 g) were rendered diabetic by intravenous administration of streptozotocin (STZ, 70 mg/kg in phosphate buffered saline). Diabetic animals were divided into five groups: one group receiving Compound 2 (10 mg/kg or 1 mg/kg), Compound 1 (10 mg/kg or 1 mg/kg) or vehicle. Another group of animals (non-STZ treated) served as non-diabetic controls. Drug/vehicle treatment was started in diabetic animals 45 days post-STZ administration. STZ-induced diabetic rats were tested for sensitivity to a heat source as soon as blood glucose levels rose to 320 mg/dl or above (30 days post STZ). The rats were then acclimated to the Hargreaves apparatus and thermal nociception was monitored using an infrared heat source directed into the […] surface of the hindpaw, and the time taken for the animal to remove its paw noted to the nearest 0.1 seconds (see Hargreaves et al. 1998 for detailed method). The intensity of the beam source was adjusted such that the mean latency for control animals (non-STZ treated) was approximately 10 seconds. Each animal was tested 8 times and the mean difference score (between mean non-diabetic control latency and mean diabetic latency) are graphically presented in FIGS. 19A and 19B.

The test system of test [5] is BB/W diabetic rats. The test can be described thus: progression of neuropathic pain in BB/W diabetic rats, thermal nociception. The class given is in vivo, Male BB/W rats. The note with it: 10 mg/kg i.p. daily; starting after 4 weeks, through six months. From the text:
(§2) Male BB/W rats (BR1, Mass) spontaneously develop a cell mediated autoimmune destruction of pancreatic B cells, resulting in onset of insulin-dependent (Type I) diabetes (Guberski 1994). […] This renders them valuable for experimental trials of new compounds for future treatments of this major disorder. In the present study, Compound 1 and Compound 2 were examined for their ability to alter the progression of diabetic neuropathy. The rats received daily injection of Compound 1 or Compound 2 (10 mg/kg i.p.) or vehicle, starting at the onset of diabetes (hyperglycemia) and up to 6 months thereafter. Another group of non-diabetic rats also receiving vehicle were tested. All animals were continuously monitored for body weight, urine volume, blood sugar and glycated haemoglobin. In the first month of the study, all animals were tested for thermal nociception in a Hargreaves apparatus, weekly. After the first month this was done biweekly and then monthly. The testing consists of directing an infrared heat source onto the […] surface of the rat hindpaw and noting the time taken for the animal to remove its paw (for detailed method see Hargreaves et al. 1998). Each animal was tested 8 times and the mean withdrawal latency noted.

For test [6], the system named is BB/W diabetic rats. Put plainly: nerve conduction velocity in BB/W diabetic rats. Format: in vivo, Male BB/W rats. The note with it: 10 mg/kg daily; starting at 8 weeks, through six months.
Source text: as §2, with “Each animal was tested 8 times and the mean withdrawal latency noted.” left out
Nerve conduction velocity was also measured every two weeks through the first eight weeks of treatment and every month thereafter through to the six months of treatment (see De Koning et al. 1987 for method details). […]

The subject of the next test is STZ-diabetic animals. Put plainly: motor and sensory nerve conduction velocity in STZ-diabetic animals. Format: in vivo, rats. The note with it: 10 mg/kg daily. As for the experimental part:
as §1
Motor and sensory nerve conduction velocity was also measured in STZ-diabetic animals after 4, 8 and 12 weeks of treatment (see De Koning and Gispen 1987 for detailed method). Briefly, stimulating needle electrodes were inserted close to the sciatic and tibial nerves with recording electrodes being placed subcutaneously over the distal foot muscles, in anesthetized rats.

Another test relates to PCP-treated rats. The test can be described thus: in vivo assay on schizophrenia (PCP model). The note with it: 50 mg/kg i.p. before PCP (5 mg/kg). The procedure:
Rats treated with PCP develop symptoms, such as frantic running and incessant head-turning, that parallel psychotic symptoms in humans. Thus, to examine the effects of NAALADase inhibition on schizophrenia, rats were treated intraperitoneally with Compound 1 (50 mg/kg), Compound 2 (50 mg/kg) or a vehicle (H2O) before they received PCP (5 mg/kg). Head rolling scores were measured for over 2 hours following PCP injection.

Molecules are shown by their SMILES.

With `O=C(O)CCC(CP(=O)(O)Cc1c(F)c(F)c(F)c(F)c1F)C(=O)O` (stereo not shown) [Compound 2, 2-[[(2,3,4,5,6-pentafluorobenzyl)hydroxyphosphinyl]methyl]-pentanedioic acid], in test [1] (1 nM, two week treatment), the “immunostaining of MBP” value is reported as “significant increase”. Moreover, in test [1] (high dose, 1 μM), the “extent of myelination vs. maximal doses of ascorbic acid and progesterone” value is reported as “greater extent of myelination”. Further, the “withdrawal latency vs. vehicle animals” value in test [2] is “significant increase”. The “acetic acid (0.6%) induced writhing vs. vehicle control” value in test [3] is given as “significantly attenuated”. Besides, in test [4], the “hyperalgesic response in diabetic rats” value is reported as “completely reversed”. In addition, the “withdrawal latencies vs. diabetic vehicle-treated rats” value in the test with BB/W diabetic rats [5] was “longer withdrawal latencies”. In the test with BB/W diabetic rats [6], the “nerve conduction deficits vs. diabetic controls receiving vehicle” value was “significantly less severe nerve conduction deficits”. Besides, the “sensory nerve conduction velocity” value in the test on STZ-diabetic animals (after 8 weeks) is recorded as “significant improvement”. The “motor nerve conduction velocity” value in the test on STZ-diabetic animals (after 12 weeks) is on record as “significant improvement”. For the same compound, in the test with PCP-treated rats, the “locomotor-activating effects of PCP (head rolling scores)” value is “significantly reduced”.
